Reference: ChEMBL document CHEMBL1201862, “PubChem BioAssay data set” (2004)
Active and inactive are the calls of the source.

How the values were obtained:
[1] = target: T1, Protein Tat (Human immunodeficiency virus type 1 group M subtype B (isolate HXB2)(HIV-1), UniProt P04608); format: functional;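 further: tat binding to TAR RNA read out by fluorescence polarization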
T1 sequence (P04608 whole entry): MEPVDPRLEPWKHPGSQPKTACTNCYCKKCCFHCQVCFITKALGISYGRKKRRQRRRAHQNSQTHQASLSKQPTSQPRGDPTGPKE

[2] = inhibitors of Vif binding to APOBEC3G peptide, primary screen, biochemical, TR-FRET, GST-Vif 1-94, biotin-A3G peptide, dose response retest (AID 1117319); format: functional;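 further: TR-FRET signal of purified GST-Vif binding a biotinylated A3G peptide; inhibitors lower the FRET signal by blocking Vif and A3G binding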
[3] = target: FAD-linked sulfhydryl oxidase ALR (Homo sapiens, UniProt P55789); experiment: inhibitors of human ALR sulfhydryl oxidase, dose response, biochemical, H2O2 detection, luminescence, cherry-pick (AID 493248)
[4] = target: Peroxisome proliferator-activated receptor gamma/Nuclear receptor coactivator 3 (Homo sapiens, UniProt P37231); format: functional;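 further: agonist potency for raising coactivator recruitment to the receptor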
[5] = target: Peroxisome proliferator-activated receptor gamma/Nuclear receptor coactivator 1 (Homo sapiens, UniProt P37231); format: functional;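 further: agonist potency as compounds enhance coactivator SRC-1 recruitment to PPARgamma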
[6] = target: Peroxisome proliferator-activated receptor gamma/Nuclear receptor coactivator 2 (Homo sapiens, UniProt P37231); format: functional;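 further: agonist potency for raising coactivator recruitment to the receptor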
[7] = target: T2, Lytic switch protein BZLF1 (Epstein-Barr virus (strain B95-8) (HHV-4) (Human herpesvirus 4), UniProt P03206); experiment: EBV ZTA inhibitors, dose response, counter-screen for EBNA-1 inhibitor project, biochemical, fluorescence polarization, Epstein-Barr virus, 1536-well (AID 2377); parameters: species or system human gammaherpesvirus 4;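 further: fluorescence polarization of Cy5-labelled ZRE DNA probe bound by purified Zta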
T2 sequence (P03206 whole entry): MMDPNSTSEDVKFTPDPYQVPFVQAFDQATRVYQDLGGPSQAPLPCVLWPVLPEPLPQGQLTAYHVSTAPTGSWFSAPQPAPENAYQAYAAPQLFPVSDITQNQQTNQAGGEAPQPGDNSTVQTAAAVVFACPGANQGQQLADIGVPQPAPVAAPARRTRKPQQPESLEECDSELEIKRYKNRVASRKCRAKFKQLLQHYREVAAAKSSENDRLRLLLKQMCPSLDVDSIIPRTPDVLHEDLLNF

[8] = target: T3, Epstein-Barr nuclear antigen 1 (Epstein-Barr virus (strain B95-8) (HHV-4) (Human herpesvirus 4), UniProt P03211); experiment: EBNA-1 inhibitors, dose response, biochemical, fluorescence polarization, 1536-well (AID 2381); parameters: species or system human gammaherpesvirus 4;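 further: fluorescence polarization of a Cy5 DNA probe bound by EBNA-1 protein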
T3 sequence (P03211 whole entry): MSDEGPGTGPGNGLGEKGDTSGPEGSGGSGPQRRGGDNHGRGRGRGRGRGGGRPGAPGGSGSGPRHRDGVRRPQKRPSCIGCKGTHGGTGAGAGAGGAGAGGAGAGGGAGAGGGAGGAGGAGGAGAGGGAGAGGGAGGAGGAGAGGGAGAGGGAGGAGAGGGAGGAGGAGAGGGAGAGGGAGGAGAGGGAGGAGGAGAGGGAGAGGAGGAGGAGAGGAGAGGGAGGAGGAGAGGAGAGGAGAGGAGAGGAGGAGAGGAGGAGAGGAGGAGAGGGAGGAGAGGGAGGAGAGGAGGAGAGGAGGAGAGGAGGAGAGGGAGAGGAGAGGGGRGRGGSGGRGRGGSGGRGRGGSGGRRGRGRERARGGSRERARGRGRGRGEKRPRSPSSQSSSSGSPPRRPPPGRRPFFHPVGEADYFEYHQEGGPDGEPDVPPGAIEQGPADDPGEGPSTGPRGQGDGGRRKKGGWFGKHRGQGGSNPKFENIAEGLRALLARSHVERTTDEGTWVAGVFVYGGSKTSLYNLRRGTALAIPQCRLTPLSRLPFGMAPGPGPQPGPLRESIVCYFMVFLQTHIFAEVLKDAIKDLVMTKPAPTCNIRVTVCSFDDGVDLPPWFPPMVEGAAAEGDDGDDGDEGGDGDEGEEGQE

[9] = target: T4, Carboxy-terminal domain RNA polymerase II polypeptide A small phosphatase 1 (Homo sapiens, UniProt Q9GZU7); experiment: inhibitors of CTDSP1, concentration-response testing, biochemical assay, absorbance-based, actives from ultra-high-throughput screening (AID 540297); format: functional
T4 sequence (Q9GZU7 whole entry): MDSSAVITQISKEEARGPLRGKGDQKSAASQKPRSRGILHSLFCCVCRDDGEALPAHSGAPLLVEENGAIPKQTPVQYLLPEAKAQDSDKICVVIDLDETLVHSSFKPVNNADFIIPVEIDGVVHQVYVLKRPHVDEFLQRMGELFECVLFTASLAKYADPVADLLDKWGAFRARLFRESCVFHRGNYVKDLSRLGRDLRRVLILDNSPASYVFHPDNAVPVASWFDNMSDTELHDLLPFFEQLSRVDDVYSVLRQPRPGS

[10] = target: T5, Estrogen receptor beta (Homo sapiens, UniProt Q92731);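 further: recombinant ER-beta bound to coactivator SRC1 peptide in presence of estradiol agonist; inhibitors block coactivator peptide binding and lower the FRET signal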
[11] = target: T5, Estrogen receptor beta; experiment: ERβ–SRC-3 coactivator interaction inhibitors, confirmation, orthogonal assay, biochemical, ELISA, streptavidin-HRP readout (AID 1060)
[12] = growth suppression of PTEN-null colon cells, dose response, cell-based, HCT116 PTEN knockout (AID 1047); format: functional;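 further: HCT116 colon tumor cells with PTEN knocked out; cells exposed to compound for 60 hours before readout; potency for loss of cell viability measured by luminescence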
[13] = THP-1 cell cytotoxicity, dose response, cytotoxicity control for Vif-APOBEC3G degradation inhibitor project, THP-1 cells (AID 1117359); format: functional; details: Human immunodeficiency virus 1, THP-1
[14] = target: T6, Polyadenylate-binding protein 1 (Homo sapiens, UniProt P11940); experiment: PABP1 MLLE–PAM2 interaction inhibitors, dose response, miRNA deadenylation inhibitor project, biochemical, fluorescence polarization, Cy5-PAM2 peptide, secondary (AID 602260); format: functional; details: read-out: IC50_Mean
[15] = growth suppression of beta-catenin-knockout colon cells, dose response, cell-based, HCT116, human colon tumor (AID 1045); format: functional;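 further: HCT116 colon tumor cells with beta catenin knocked out; cells exposed to compound for 60 hours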
[16] = target: T7, Protein RecA (Mycobacterium tuberculosis, UniProt P9WHJ3); experiment: Fluorescence Cell-Free Homogeneous Dose Retest to Identify Inhibitors of RecA-Intein Splicing Activity. [Related pubchem assays (depositor defined):AID2097, AID2223, AID489010, AID492950]; format: functional
T7 sequence (P9WHJ3 whole entry): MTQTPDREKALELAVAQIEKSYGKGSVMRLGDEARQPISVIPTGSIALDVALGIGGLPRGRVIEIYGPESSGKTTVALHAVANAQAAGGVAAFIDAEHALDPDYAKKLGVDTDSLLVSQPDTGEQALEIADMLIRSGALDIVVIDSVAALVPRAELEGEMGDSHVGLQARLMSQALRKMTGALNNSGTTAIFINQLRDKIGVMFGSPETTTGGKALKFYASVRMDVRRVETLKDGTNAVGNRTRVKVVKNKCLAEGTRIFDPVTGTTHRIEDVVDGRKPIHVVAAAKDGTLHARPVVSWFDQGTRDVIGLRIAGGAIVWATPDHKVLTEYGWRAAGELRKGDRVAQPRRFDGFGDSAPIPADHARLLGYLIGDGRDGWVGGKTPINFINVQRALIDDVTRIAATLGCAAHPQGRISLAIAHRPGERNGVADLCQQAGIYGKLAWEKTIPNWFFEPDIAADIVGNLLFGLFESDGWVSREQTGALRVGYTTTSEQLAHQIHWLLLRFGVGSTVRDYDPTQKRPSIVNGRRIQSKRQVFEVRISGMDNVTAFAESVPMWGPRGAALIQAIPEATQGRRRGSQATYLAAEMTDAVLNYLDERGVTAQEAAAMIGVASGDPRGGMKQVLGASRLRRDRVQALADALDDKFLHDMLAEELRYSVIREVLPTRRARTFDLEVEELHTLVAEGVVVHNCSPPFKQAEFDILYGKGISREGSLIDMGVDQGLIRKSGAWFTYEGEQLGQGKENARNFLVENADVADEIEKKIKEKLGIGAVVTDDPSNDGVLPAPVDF

[17] = target: T8, Replicative DNA helicase DnaB (Mycobacterium tuberculosis, UniProt P9WMR3); experiment: DnaB intein splicing inhibitors, dose response, biochemical, cell-free fluorescence (AID 449749); format: functional
T8 sequence (P9WMR3 whole entry): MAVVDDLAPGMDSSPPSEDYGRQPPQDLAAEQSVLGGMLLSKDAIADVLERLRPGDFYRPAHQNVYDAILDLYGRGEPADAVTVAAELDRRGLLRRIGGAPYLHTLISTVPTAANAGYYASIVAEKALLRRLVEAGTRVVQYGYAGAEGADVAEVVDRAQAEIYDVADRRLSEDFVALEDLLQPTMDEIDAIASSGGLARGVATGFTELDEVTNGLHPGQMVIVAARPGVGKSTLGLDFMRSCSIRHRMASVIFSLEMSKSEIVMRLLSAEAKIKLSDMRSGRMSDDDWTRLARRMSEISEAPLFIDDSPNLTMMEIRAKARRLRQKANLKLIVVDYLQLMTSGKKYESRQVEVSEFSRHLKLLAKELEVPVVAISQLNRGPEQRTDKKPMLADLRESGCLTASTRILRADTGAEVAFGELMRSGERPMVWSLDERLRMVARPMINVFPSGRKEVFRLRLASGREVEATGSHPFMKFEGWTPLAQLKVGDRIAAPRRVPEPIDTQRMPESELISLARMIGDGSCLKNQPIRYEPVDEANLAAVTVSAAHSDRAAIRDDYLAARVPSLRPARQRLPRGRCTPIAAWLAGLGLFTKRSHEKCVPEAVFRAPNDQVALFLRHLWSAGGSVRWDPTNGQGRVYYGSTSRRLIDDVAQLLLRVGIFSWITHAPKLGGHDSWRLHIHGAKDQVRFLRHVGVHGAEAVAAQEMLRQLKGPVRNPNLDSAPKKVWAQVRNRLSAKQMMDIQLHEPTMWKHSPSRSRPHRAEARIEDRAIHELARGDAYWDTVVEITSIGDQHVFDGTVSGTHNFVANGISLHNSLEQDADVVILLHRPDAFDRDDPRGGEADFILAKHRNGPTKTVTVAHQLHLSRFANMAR

[18] = target: T6, Polyadenylate-binding protein 1; experiment: PABP1 MLLE–PAM2 binding inhibitor potency, dose response, biochemical, fluorescence polarization, FITC-PAM2 peptide (AID 602259); format: functional; details: read-out: IC50_Mean

Peroxisome proliferator-activated receptor gamma/Nuclear receptor coactivator 1, sequence (P37231 whole entry): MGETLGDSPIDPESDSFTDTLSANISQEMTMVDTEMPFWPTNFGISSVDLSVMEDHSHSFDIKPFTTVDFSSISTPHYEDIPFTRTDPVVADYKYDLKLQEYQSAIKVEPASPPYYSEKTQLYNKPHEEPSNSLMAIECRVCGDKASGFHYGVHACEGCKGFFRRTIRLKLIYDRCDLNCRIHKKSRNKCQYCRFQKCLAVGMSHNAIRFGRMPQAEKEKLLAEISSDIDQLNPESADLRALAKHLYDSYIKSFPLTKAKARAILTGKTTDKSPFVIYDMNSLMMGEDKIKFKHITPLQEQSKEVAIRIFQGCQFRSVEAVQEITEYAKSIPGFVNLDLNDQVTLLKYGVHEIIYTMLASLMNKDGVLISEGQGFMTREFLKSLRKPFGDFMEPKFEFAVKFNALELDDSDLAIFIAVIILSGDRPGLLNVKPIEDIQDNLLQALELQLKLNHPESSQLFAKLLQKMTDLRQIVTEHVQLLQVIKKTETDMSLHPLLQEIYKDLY
Peroxisome proliferator-activated receptor gamma/Nuclear receptor coactivator 1, sequence (Q15788 whole entry, further chain): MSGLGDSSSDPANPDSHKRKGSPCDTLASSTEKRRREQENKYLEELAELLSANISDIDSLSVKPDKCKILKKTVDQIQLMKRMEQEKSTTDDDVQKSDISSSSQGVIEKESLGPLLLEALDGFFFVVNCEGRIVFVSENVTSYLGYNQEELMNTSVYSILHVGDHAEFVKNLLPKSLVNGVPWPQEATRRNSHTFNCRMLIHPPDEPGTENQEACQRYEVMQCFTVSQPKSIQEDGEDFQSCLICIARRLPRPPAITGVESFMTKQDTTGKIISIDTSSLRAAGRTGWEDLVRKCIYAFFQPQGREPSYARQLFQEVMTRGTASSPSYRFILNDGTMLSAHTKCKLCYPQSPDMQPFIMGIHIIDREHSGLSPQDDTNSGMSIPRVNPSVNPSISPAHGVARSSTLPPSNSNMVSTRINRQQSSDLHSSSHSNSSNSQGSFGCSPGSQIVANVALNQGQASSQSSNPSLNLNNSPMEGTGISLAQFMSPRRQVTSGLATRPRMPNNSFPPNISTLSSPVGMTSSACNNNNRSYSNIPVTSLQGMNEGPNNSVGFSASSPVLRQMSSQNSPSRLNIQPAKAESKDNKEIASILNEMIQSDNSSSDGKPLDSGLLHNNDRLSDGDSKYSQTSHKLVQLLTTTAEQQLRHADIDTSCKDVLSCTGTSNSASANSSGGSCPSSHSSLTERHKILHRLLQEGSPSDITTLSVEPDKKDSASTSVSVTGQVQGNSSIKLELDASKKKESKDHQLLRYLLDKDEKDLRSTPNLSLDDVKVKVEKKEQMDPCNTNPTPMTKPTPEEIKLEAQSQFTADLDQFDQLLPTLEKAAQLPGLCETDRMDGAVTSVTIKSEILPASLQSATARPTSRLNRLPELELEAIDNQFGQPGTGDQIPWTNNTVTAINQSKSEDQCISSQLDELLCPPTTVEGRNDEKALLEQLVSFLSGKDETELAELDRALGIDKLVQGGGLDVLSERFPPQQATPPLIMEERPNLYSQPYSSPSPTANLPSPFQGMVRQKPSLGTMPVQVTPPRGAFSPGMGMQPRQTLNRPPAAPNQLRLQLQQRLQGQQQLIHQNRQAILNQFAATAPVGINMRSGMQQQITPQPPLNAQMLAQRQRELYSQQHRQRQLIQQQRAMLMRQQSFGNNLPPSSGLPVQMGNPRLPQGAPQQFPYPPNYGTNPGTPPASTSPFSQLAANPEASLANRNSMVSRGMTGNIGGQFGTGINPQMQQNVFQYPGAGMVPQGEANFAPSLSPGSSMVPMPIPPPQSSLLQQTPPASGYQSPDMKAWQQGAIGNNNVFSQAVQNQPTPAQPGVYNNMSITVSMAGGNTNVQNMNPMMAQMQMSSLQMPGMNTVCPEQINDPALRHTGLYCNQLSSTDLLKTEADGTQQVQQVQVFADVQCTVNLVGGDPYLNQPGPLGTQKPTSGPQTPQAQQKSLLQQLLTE
Peroxisome proliferator-activated receptor gamma/Nuclear receptor coactivator 3, sequence (P37231 whole entry): as the sequence (P37231 whole entry) above
Peroxisome proliferator-activated receptor gamma/Nuclear receptor coactivator 3, sequence (Q9Y6Q9 whole entry, further chain): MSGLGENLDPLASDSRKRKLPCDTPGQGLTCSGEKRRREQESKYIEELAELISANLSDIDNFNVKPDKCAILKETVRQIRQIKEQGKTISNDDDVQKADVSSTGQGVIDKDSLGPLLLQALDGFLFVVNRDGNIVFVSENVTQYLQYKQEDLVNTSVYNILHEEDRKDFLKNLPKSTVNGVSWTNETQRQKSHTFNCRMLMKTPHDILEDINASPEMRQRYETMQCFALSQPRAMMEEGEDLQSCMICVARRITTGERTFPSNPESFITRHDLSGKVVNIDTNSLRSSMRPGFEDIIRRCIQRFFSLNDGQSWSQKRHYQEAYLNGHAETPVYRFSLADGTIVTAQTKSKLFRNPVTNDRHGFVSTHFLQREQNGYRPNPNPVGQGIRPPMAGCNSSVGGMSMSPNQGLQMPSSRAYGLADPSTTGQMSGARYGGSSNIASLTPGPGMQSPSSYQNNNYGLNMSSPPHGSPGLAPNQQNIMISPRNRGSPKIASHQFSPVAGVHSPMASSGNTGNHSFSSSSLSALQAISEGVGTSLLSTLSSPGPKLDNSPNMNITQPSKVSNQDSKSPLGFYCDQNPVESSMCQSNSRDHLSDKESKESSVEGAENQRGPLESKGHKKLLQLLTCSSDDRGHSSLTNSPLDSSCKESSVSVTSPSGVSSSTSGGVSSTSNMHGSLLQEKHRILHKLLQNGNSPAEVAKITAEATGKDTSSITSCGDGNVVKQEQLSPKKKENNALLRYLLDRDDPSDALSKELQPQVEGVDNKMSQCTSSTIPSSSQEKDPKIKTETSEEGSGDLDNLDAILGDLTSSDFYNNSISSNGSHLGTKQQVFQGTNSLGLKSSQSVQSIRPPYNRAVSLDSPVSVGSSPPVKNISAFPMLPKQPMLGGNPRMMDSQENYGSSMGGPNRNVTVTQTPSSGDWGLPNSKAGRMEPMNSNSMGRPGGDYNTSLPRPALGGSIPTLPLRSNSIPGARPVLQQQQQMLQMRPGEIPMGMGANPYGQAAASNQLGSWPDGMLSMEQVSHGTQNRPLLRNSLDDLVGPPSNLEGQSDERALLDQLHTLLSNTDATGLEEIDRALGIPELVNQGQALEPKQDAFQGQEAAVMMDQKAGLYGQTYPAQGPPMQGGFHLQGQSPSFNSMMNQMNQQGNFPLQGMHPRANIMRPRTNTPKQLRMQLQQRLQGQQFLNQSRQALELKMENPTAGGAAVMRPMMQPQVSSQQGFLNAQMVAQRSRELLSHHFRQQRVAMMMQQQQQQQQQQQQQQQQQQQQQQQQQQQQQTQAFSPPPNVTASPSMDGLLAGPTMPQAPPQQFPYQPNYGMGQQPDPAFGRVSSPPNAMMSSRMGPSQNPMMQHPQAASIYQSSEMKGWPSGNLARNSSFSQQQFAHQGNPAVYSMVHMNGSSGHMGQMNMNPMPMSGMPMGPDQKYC
T5 sequence (Q92731 whole entry): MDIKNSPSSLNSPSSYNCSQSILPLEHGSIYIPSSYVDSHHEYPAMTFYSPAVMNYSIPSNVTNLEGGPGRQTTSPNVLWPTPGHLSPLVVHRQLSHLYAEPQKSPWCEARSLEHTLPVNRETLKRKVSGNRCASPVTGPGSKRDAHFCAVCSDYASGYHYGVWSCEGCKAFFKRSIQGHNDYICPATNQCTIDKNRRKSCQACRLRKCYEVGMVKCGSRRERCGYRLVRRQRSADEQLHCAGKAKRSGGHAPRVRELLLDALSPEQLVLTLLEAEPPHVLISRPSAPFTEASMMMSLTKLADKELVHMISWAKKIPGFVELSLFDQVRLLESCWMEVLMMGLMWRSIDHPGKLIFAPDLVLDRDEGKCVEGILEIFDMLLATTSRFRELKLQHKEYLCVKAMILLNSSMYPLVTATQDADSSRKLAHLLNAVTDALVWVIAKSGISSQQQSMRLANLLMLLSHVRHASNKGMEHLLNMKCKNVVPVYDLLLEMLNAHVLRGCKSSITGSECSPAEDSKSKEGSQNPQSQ
T6 sequence (P11940 whole entry): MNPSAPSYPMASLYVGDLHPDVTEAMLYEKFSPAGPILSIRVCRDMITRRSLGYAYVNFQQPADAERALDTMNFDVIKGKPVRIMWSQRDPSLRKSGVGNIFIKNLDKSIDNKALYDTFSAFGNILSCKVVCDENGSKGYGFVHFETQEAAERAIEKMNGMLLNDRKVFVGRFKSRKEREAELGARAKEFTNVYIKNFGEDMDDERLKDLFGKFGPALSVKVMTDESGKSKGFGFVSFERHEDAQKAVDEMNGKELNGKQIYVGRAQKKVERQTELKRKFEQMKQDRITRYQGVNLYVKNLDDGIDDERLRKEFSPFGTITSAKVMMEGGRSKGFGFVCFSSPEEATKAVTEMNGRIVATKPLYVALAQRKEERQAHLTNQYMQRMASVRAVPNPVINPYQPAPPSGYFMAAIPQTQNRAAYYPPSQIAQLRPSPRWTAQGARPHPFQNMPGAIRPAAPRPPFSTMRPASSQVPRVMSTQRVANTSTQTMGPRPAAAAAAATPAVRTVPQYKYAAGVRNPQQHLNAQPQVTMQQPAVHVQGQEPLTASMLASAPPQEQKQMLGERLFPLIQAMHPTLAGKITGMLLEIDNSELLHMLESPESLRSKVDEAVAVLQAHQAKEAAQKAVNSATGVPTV

COc1ccc(S(=O)(=O)Cc2ccc(C(=O)N3CCN(c4ccccc4)CC3)o2)cc1
IC50 [1]: > 100 µM (active)
IC50 [2]: > 100 µM (active)
AC50 [3]: 19.1 µM (active)

Cc1ccc(/C=C2\SC(N)=NC2=O)s1
EC50 [4]: > 79.4 µM (not active)
EC50 [5]: > 79.4 µM (not active)
EC50 [6]: > 79.4 µM (not active)

O=S1(=O)CC2N=C(N(Cc3ccc(F)cc3Cl)c3ccccc3F)SC2C1 (stereo unspecified)
EC50 [4]: > 79.4 µM (not active)
EC50 [5]: > 79.4 µM (not active)
EC50 [6]: > 79.4 µM (not active)

CSc1ccccc1NC(=O)Cn1nnc(-c2ccc(S(C)(=O)=O)cc2)n1
IC50 [7]: > 111 µM (not active)
IC50 [8]: 6.17 µM (active)

Sc1nnc(-c2cc(-c3ccco3)[nH]n2)n1-c1ccccc1Cl
IC50 [9]: 5.55 µM (active)
IC50 [10]: > 50 µM (not active)
IC50 [11]: > 109 µM (not active)

COc1ccccc1CN(C)C(=O)c1ccc2c(c1)NC(=O)CS2
EC50 [4]: > 79.4 µM (not active)
EC50 [5]: > 79.4 µM (not active)
EC50 [6]: > 79.4 µM (not active)

O=[N+]([O-])c1c(NCCCO)cc(SCc2ccco2)c2nonc12
EC50 [12]: 27.1 µM (active)
CC50 [13]: > 40 µM (active)
IC50 [14]: > 66 µM (inactive)
EC50 [15]: 18 µM (active)
EC50 [16]: 5.64 µM (active)
AC50 [17]: 57.7 µM (active)
IC50 [18]: > 66 µM (inactive)

COc1ccc(Cc2nnc(NC(=O)Nc3ccccc3F)s2)cc1OC
IC50 [7]: > 111 µM (not active)
IC50 [8]: 6.66 µM (active)
